Series [1] has as its system P. falciparum chloroquine resistant W2. Nature of the series: Growth inhibition assay (SYBR Green I), W2. As to conditions: W2, 72 h; for IC50: synchronized ring culture.
Description: (§5) A 50% suspension of non-infected O positive erythrocytes was added every 2 days to adjust haematocrit to 5%. Parasite cultures were maintained at 37 °C in 5% O2 and 5% CO2 atmosphere with daily changes of culture media.
(§6) A synchronized P. falciparum culture, with over 80% ring forms, was used in the growth inhibition assay. […] A 190 μL aliquot of parasite culture was dispensed per well to microplates that were pre-dispensed with the compounds at various dilutions. […] Dilutions of Hsp90 inhibitors and DHA were prepared in water with a final concentration of DMSO below 0.05% (v/v).
(§7) The microplates were incubated at 37 °C in a controlled atmosphere (5% O2, 5% CO2 Nitrogen balanced) for 72 h. After incubation, the plates were subject to a freeze–thaw cycle (−80 °C) and the parasite growth was quantified by the SYBR Green I method as previously described [33]. Briefly, 100 µL of homogenized parasite culture was transferred into 96-well black plates. […] The plates were incubated at room temperature in darkness for 1 h.
(§8) Growth inhibition experiments were conducted at least three times per compound (biological replicates, n ≥ 3). The IC50 differences for each inhibitor between the two P. falciparum strains were compared with a t test.
For series [2], the system named is Primary normal human lung fibroblasts (NHLFs). Nature of the series: Drug cytotoxicity assay (MTT). As to conditions: 24 h; for IC50: Homo sapiens, Fibroblast, read-out: IC50 against human cells.
Description: Primary normal human lung fibroblasts (NHLFs) were seeded on 24-well plates and cultured in FGM-2 media (LONZA, Basel, Switzerland) until they reached 80% confluency. […] Briefly, 50 µL of MTT dye was added into the media and the cells were returned to the incubator for 3 h. Then 500 µL of solubilization solution was added to dissolve the MTT formazan crystals. […] The drug cytotoxicity assay was performed in triplicate.
The test system of series [3] is P. falciparum W2. Nature of the series: Recrudescence assay, W2. The series is classed as cell-based, Plasmodium falciparum. As to conditions: for recovery time in combination with DHA vs DHA alone: W2, 48 h, two concentrations plus DHA 100 nM; for delay of culture recovery vs untreated control (cytocidal activity): W2, 48 h exposure, 17-AAG 1.5-6 µM, 17-DMAG 0.3-1.2 µM, NVP-AUY922 0.18-0.72 µM. The protocol:
(§1) The assay is a modification of the previously reported bulk recrudescence assay. […] […] After drug exposure, the medium containing the drug was removed and the cultures were washed twice with compound-free media, and resuspended in RPMI to adjust haematocrit to 5%. The medium was changed every day and red blood cells were added every 2 days to adjust the haematocrit. The cultures were monitored daily until they reached 10% parasitaemia, which represented the end point of the experiment. Culture parasitaemia was determined by scoring >2000 erythrocytes in Giemsa-stained thin blood films as parasitized or not. The median number of days to reach this level of parasitaemia was reported for all the experiments. All experiments were conducted in triplicate; each replica was conducted on different days. The differences in the recovery times between control cultures to those exposed to Hsp90 inhibitors were analysed using the non-parametric statistic Kruskal–Wallis test. If the overall test was significant then Dunn’s multiple comparison tests were used to identify significant differences among pair comparisons. The same statistical analysis was applied when comparing P. falciparum cultures exposed to DHA alone versus DHA in combination with Hsp90 inhibitors. […] The statistical analyses were performed with the software Prism v6 (GraphPad Software, San Diego, CA).

For series [4], the system named is P. falciparum 3D7. Nature of the series: Recrudescence assay, 3D7. Conditions: for recovery time in combination with DHA vs DHA alone: 3D7, 48 h, two concentrations plus DHA 100 nM; for delay of culture recovery vs untreated control (cytocidal activity): 3D7, 48 h exposure, 17-AAG 1.5-6 µM, 17-DMAG 0.3-1.2 µM, NVP-AUY922 0.18-0.72 µM. The series is classed as cell-based, Plasmodium falciparum. The protocol: as §1

In series [5] the test system is P. falciparum W2. Nature of the series: Parasite stage specific effect, W2. The series is classed as cell-based, Plasmodium falciparum. Conditions: W2, 24 h; 17-DMAG 1.2 µM, NVP-AUY922 0.72 µM. How it is done: (§2) Synchronized P. falciparum cultures were used to determine the susceptibility of different parasite stages to Hsp90 inhibitors. Three synchronized cultures per strain, with a majority of the parasites in the ring (0–26 h post red blood cell infection), trophozoite (26–38 h) or schizont (38–48 h) stages respectively (Fig. 3). […] The cultures were exposed to one concentration of the Hsp90 inhibitor for 24 h. […] For each three exposed the cultures and the control for both strains 3D7 and W2, the parasitaemia and the developmental stage of the parasites were recorded. Before and after drug exposure, Giemsa-stained blood smears were scored by microscopy examination counting 100 infected erythrocytes per culture, and the proportion of each developmental stage was calculated.

The target of another series is T1, human Hsp90α (Homo sapiens, UniProt P07900).
T1 construct: Full-length human recombinant HSP90α was purchased; purchased Cayman Chemicals, MI
Nature of the series: Biacore SPR analysis, full-length human Hsp90α. The series is classed as binding. As to conditions: SPR, 25 °C. The protocol: (§3) Full-length human recombinant HSP90α was purchased (Cayman Chemicals, MI), while the malaria recombinant parasite proteins were generated according to the following protocol. […] Growth at 37 °C continued until the OD600 reached ~1.0, whereupon the temperature was lowered to 18 °C and protein expression was induced by the addition of 1 mM isopropyl β-D-thiogalactopyranoside (IPTG). Overnight post-induction cells were collected by centrifugation and resuspended in binding buffer [50 mM Hepes pH 7.5, 500 mM NaCl, 1 mM benzamidine, and 1 mM phenylmethanesulfonyl fluoride (PMSF)]. The cells were lysed by adding chemical lysis buffer (2% CHAPS, 0.1 mg/mL lysozyme and 0.5 U/mL benzonase), the lysate was clarified by centrifugation. The supernatant was loaded on to a nickel-nitrilotriacetic acid column pre-equilibrated with binding buffer (50 mM Hepes pH 7.5, 500 mM NaCl). Following a wash step with binding buffer containing 5 mM imidazole, the bound protein was eluted with elution buffer (50 mM Hepes pH 7.5, 500 mM NaCl, 250 mM imidazole). The eluate was then loaded on to a 16/60 Superdex 200 size exclusion column pre-equilibrated with 50 mM Hepes pH 7.5 and 500 mM NaCl. Target protein-containing fractions were pooled and concentrated using centrifugal filter units (Amicon). The final protein products and samples for different steps in the purification procedures were evaluated in SDS-Page gels.
SPR measurements were performed on Biacore T200 instrument (GE Healthcare) at 25 °C. Purified P. falciparum Hsp90 and PfGRP94 N-terminal domain, and full-length human Hsp90α were immobilized on a CM5 sensorchip using NHS/EDC coupling following the manufacturer protocol to a level of <10,000 RUs, a reference surfaces without immobilized proteins served as a control for nonspecific binding and refractive index changes. […] The running buffer was 10 mM HEPES, pH 7.4, 150 mM NaCl, 0.005% P20, 1% DMSO and 2 mM MgCl2. Buffer alone injections were used as blanks. The sensor surface was regenerated between injections with a short injection of a buffer 10 mM HEPES, pH 7.4, 150 mM NaCl, 0.005% P20 and 3 mM EDTA. The Biacore responses recorded during the 30 s of the injection were used to estimate the association constant (k on) and the 300 s after the injection were used to estimate the dissociation constant (k off). All kinetic constants were estimated using double subtracted sensorgrams using BiaEvaluation Software (GE Healthcare), the kinetic constants were used to calculate the dissociation constant (K d).

Series [6] concerns P. falciparum 3D7. Nature of the series: Parasite stage specific effect, 3D7. The series is classed as cell-based, Plasmodium falciparum. As to conditions: 3D7, 24 h; 17-DMAG 1.2 µM, NVP-AUY922 0.72 µM. How it is done: as §2
For series [7], the system named is P. falciparum chloroquine sensitive 3D7. Nature of the series: Growth inhibition assay (SYBR Green I), 3D7. As to conditions: 3D7, 72 h; for IC50: synchronized ring culture.
Description: as §5, §6, §7, §8
A further series deals with P. falciparum Grp94 (Plasmodium falciparum, UniProt Q8I0V4). Nature of the series: biochemical. The series is classed as binding. The protocol:
as §3
(§4) SPR measurements were performed on Biacore T200 instrument (GE Healthcare) at 25 °C. Purified P. falciparum Hsp90 and PfGRP94 N-terminal domain, and full-length human Hsp90α were immobilized on a CM5 sensorchip using NHS/EDC coupling following the manufacturer protocol to a level of <10,000 RUs, a reference surfaces without immobilized proteins served as a control for nonspecific binding and refractive index changes. Seven different concentrations of the ligands between 0.4 nM and 1 mM, were injected in triplicate over the sensor chip at 30 μL/min in random order. The running buffer was 10 mM HEPES, pH 7.4, 150 mM NaCl, 0.005% P20, 1% DMSO and 2 mM MgCl2. Buffer alone injections were used as blanks. The sensor surface was regenerated between injections with a short injection of a buffer 10 mM HEPES, pH 7.4, 150 mM NaCl, 0.005% P20 and 3 mM EDTA. The Biacore responses recorded during the 30 s of the injection were used to estimate the association constant (k on) and the 300 s after the injection were used to estimate the dissociation constant (k off). All kinetic constants were estimated using double subtracted sensorgrams using BiaEvaluation Software (GE Healthcare), the kinetic constants were used to calculate the dissociation constant (K d).

Another series addresses P. falciparum Hsp90 (Plasmodium falciparum, UniProt Q8IC05). Nature of the series: biochemical. The series is classed as binding. The protocol: as §3, §4
The conditions of series [8]: mouse, in vivo; cited from earlier work.
On the set-up of series [9]: method as in PMID 18020435. Conditions: mice, 50 mg/kg; read-out: Cmax in plasma; cited from earlier work.
[10] abbreviates: SPR, 25 °C, calculated from kinetic constants, read-out: Kd.

“Also recorded” adds a separate entry of the source. Where two headings read alike, the source gives them in different places. A value given as a limit tells only on which side of the number the result lay.

The values that follow come from PMC5518105, “Identification and characterization of the antiplasmodial activity of Hsp90 inhibitors” (Malaria Journal, 2017).

Chain of P. falciparum Hsp90 (Q8IC05 entry or part of it): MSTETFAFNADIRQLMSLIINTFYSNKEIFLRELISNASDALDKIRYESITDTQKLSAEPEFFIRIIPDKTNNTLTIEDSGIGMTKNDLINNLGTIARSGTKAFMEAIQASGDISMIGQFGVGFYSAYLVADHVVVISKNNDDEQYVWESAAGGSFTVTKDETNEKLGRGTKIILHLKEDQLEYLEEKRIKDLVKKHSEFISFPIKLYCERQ
Chain of P. falciparum Grp94 (Q8I0V4 entry or part of it): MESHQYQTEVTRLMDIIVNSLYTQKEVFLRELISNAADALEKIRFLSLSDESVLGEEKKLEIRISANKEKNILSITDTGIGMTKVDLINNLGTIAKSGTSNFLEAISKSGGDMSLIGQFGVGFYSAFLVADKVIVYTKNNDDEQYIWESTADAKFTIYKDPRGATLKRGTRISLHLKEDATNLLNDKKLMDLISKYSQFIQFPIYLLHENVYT

On to `CO[C@H]1/C=C\C=C(/C)C(=O)NC2=CC(=O)C(NCCN(C)C)=C(C[C@@H](C)C[C@H](OC)[C@H](O)[C@@H](C)/C=C(\C)[C@@H]1OC(N)=O)C2=O` [17-DMAG, 17-(dimethylaminoethylamino)-17-demethoxygeldanamycin], for which the IC90 was determined as 542 nM in series [1] (Plasmodium falciparum) and 287 nM in [7] (Plasmodium falciparum). Moreover, the IC50 was 169 nM in series [1] (Plasmodium falciparum); 170 nM in [1]; more than 10000 nM in [2]; 118 nM in [7]; 118 nM in [7] (Plasmodium falciparum). In series [2] (NHLF, 0.5 to 10 µM), the “growth inhibition for the human cells” value is not above 25%. Besides, the “growth of host cells compared to no drug controls” value in [2] (NHLF, 0.5 to 10 µM, t test) is given as “only the highest concentration (10 µM) was significantly different from the controls”. The entries for the “recovery time in combination with DHA vs DHA alone” value with P. falciparum W2 [3] and with P. falciparum 3D7 [4] were “not significantly more toxic to W2” and “more effective in combination against P. falciparum 3D7 but only at one of the lowest concentrations”, respectively. The “delay of culture recovery vs untreated control (cytocidal activity)” value in the series on P. falciparum W2 [3] and with P. falciparum 3D7 [4] was “only significantly different from the control parasite cultures when assayed at a concentration ~8 times its average IC50; also recorded: strong cytotoxic activities” throughout. The “effect against all parasite stages (ring, trophozoite, schizont)” value in the series with P. falciparum W2 [5] and with P. falciparum 3D7 [6] was “effective against all parasite stages” throughout. Also, the kd at human Hsp90α was found to be 0.007 s⁻¹; on P. falciparum Grp94 (SPR, 25 °C) it was 0.001 s⁻¹; on P. falciparum Hsp90 (SPR, 25 °C), 0.001 s⁻¹. In addition, the ka is reported as 53,000 1/Ms at P. falciparum Grp94 (SPR, 25 °C) and 208,000 1/Ms at P. falciparum Hsp90 (SPR, 25 °C). The Kd was 23 nM on P. falciparum Grp94 (setting [10]), 8 nM at P. falciparum Hsp90 (setting [10]) and 8.23 nM on P. falciparum Hsp90 (read-out: Kd against the parasite chaperone). Moreover, the tolerability result in [8] is reported as “well tolerated without any visible side effects”.

With `CCNC(=O)c1noc(-c2cc(C(C)C)c(O)cc2O)c1-c1ccc(CN2CCOCC2)cc1` [NVP-AUY922], the IC90 in series [1] (Plasmodium falciparum) was found to be 460 nM; in series [7] (Plasmodium falciparum), 646 nM. The IC50 was approximately 75 nM in [1] (Plasmodium falciparum); 75.4 nM in series [1]; more than 10000 nM in series [2]; 75.5 nM in series [7]; approximately 75 nM in series [7] (Plasmodium falciparum). Further, in series [9], the Cmax was 35 µM. Besides, the “growth inhibition for the human cells” value in [2] (NHLF, 0.5 to 10 µM) is reported as not above 25%. In addition, the entries for the “recovery time in combination with DHA vs DHA alone” value in the series with P. falciparum W2 [3] and in the series with P. falciparum 3D7 [4] were “only significant in the case of P. falciparum W2” and “increase in the time required to reach 10% parasitaemia”, respectively. The “delay of culture recovery vs untreated control (cytocidal activity)” value was “(0.36 and 0.72 µM) significantly delayed the parasite recovery; also recorded: strong cytotoxic activities” in the series with P. falciparum W2 [3]; “(0.36 and 0.72 µM) significantly delayed the parasite recovery; also recorded: strong cytotoxic activities” with P. falciparum 3D7 [4]. In addition, the “effect against all parasite stages (ring, trophozoite, schizont)” value in the series on P. falciparum W2 [5] and with P. falciparum 3D7 [6] was “effective against all parasite stages” throughout. The Kd on P. falciparum Grp94 turned out to be 9 nM; on P. falciparum Hsp90 (Kd), 13 nM; on P. falciparum Hsp90 (Kd against the parasite chaperone), 13.2 nM. Moreover, the ka at P. falciparum Grp94 is 438,000 1/Ms; at P. falciparum Hsp90 it was 107,000 1/Ms. The kd is 0.004 s⁻¹ at P. falciparum Grp94 and 0.001 s⁻¹ on P. falciparum Hsp90.
